Patent publication US9216999B2, “Substituted pyrrolo[2,3-h][1,6]naphthyridines and compositions thereof as JAK inhibitors” (priority 2011, dated 2015)

What was measured:
Format in all cases: biochemical
Details in all cases: ATP 100 μM
[1] = target: JAK3 (Homo sapiens (Human), UniProt P52333); test: Enzyme assay (Assay Example^a 1), JAK3
[2] = target: Tyk2 (Homo sapiens (Human), UniProt P29597); test: Enzyme assay (Assay Example^a 1), Tyk2
[3] = target: JAK2 (Homo sapiens (Human), UniProt O60674); test: Enzyme assay (Assay Example^a 1), JAK2
[4] = target: JAK1 (Homo sapiens (Human), UniProt P23458); test: Enzyme assay (Assay Example^a 1), JAK1

JAK3, sequence (P52333 whole entry): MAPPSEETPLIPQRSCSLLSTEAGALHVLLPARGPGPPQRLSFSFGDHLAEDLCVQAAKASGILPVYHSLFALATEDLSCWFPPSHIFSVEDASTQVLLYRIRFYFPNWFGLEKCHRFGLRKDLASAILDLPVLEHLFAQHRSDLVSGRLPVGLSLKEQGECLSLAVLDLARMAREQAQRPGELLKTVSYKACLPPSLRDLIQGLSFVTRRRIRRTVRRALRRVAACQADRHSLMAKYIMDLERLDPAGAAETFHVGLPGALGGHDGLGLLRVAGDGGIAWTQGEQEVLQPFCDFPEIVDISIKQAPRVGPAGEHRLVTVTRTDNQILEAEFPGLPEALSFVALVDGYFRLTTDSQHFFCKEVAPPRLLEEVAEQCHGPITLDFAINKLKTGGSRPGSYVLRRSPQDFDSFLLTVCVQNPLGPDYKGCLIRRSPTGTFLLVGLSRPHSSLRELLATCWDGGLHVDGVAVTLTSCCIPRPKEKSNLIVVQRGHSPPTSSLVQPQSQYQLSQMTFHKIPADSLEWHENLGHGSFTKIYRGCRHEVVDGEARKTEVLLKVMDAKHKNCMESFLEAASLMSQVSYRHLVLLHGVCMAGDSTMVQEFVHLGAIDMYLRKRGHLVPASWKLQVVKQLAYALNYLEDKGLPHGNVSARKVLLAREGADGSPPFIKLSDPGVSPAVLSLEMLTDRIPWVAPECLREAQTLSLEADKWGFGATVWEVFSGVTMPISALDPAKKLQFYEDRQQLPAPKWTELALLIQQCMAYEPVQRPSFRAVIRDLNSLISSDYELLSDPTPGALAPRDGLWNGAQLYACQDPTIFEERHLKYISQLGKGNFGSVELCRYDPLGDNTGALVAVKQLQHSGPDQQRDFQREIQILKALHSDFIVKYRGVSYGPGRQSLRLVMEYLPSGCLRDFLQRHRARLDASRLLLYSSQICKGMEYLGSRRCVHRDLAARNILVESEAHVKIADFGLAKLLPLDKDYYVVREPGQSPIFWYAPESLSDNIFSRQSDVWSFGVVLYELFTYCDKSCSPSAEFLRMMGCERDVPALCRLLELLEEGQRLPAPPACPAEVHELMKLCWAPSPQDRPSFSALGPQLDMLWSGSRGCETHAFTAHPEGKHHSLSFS
Tyk2, sequence (P29597 whole entry): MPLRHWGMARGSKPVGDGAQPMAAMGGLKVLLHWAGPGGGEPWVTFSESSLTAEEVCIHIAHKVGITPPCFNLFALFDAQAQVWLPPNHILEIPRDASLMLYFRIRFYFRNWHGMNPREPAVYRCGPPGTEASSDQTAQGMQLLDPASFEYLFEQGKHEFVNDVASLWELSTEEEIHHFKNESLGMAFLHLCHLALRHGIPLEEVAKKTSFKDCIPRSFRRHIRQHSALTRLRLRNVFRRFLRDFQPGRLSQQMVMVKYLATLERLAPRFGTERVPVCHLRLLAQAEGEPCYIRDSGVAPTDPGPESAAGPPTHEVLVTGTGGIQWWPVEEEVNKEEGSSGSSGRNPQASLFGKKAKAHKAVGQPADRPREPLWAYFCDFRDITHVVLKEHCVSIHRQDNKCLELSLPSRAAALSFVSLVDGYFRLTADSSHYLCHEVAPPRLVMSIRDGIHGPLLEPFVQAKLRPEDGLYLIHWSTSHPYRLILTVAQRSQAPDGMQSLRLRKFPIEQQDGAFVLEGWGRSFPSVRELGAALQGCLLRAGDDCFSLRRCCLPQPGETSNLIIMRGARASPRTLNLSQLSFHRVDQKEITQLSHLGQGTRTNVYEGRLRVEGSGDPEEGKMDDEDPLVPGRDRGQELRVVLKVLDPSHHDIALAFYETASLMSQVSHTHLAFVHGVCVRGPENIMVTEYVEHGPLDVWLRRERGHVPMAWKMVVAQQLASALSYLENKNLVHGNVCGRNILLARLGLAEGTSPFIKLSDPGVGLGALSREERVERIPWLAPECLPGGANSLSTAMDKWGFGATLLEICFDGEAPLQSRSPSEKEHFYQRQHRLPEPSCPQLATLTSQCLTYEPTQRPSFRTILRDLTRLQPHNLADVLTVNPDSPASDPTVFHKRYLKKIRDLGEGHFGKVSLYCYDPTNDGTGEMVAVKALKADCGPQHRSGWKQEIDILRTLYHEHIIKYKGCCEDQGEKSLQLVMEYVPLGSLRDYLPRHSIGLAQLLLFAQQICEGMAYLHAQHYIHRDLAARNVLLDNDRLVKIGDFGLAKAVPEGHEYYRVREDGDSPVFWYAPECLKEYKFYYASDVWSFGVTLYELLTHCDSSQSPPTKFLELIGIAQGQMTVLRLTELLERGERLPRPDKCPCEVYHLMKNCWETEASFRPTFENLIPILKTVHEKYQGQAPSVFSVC

IC50 ([1]; Table^a 154) [µM] | IC50 ([2]; Table^a 154) [µM] | IC50 ([3]; Table^a 154) [µM] | IC50 ([4]; Table^a 154) [µM] | Structure (SMILES) | IC50 [1] [µM] | IC50 [2] [µM] | IC50 [3] [µM] | IC50 [4] [µM]
0.52 | 0.65 | 0.042 | 0.0032 | CS(=O)(=O)c1ccc(CN2CCC(c3nnn4cnc5[nH]ccc5c34)CC2)cc1 [compound 156] | – | – | – | –
0.1 | 0.34 | 0.02 | 0.0044 | Fc1ccc(CN2CCC(c3nnn4cnc5[nH]ccc5c34)CC2)c(Cl)c1 [compound 165, 1-[1-(2-chloro-4-fluorobenzyl)piperidin-4-yl]-7H-pyrrolo[3,2-e][1,2,3]triazolo[1,5-c]pyrimidine] | – | – | – | –
0.35 | 0.26 | 0.021 | 0.0053 | Clc1cc(CN2CCC(c3nnn4cnc5[nH]ccc5c34)CC2)ccn1 [compound 160] | – | – | – | –
0.17 | 0.98 | 0.03 | 0.0031 | Fc1cc(CN2CCC(c3nnn4cnc5[nH]ccc5c34)CC2)ccc1C(F)(F)F [compound 167, 1-{1-[3-fluoro-4-(trifluoromethyl)benzyl]piperidin-4-yl}-7H-pyrrolo[3,2-e][1,2,3]triazolo[1,5-c]pyrimidine] | – | – | – | –
0.44 | 0.46 | 0.054 | 0.022 | c1csc(CN2CCC(c3nnn4cnc5[nH]ccc5c34)CC2)n1 [compound 48] | – | – | – | –

The remaining lines, values behind:

Structure (SMILES) | IC50 ([1]; Table^a 154) [µM] | IC50 ([2]; Table^a 154) [µM] | IC50 ([3]; Table^a 154) [µM] | IC50 ([4]; Table^a 154) [µM] | IC50 [1] [µM] | IC50 [2] [µM] | IC50 [3] [µM] | IC50 [4] [µM]
C[C@H](O)CNC[C@H]1CC[C@H](c2nnn3cnc4[nH]ccc4c23)CC1 [compound 184, (S)-1-({[trans-4-(7H-pyrrolo[3,2-e][1,2,3]triazolo[1,5-c]pyrimidin-1-yl)cyclohexyl]methyl}amino)propan-2-ol] | 0.58 | 0.087 | 0.042 | 0.0035 | – | – | – | –
Clc1ccc(CN2CCC(c3nnn4cnc5[nH]ccc5c34)CC2)o1 [compound 228, 1-{1-[(5-chlorofuran-2-yl)methyl]piperidin-4-yl}-7H-pyrrolo[3,2-e][1,2,3]triazolo[1,5-c]pyrimidine] | – | – | – | – | 0.17 | 0.1 | 0.0044 | 0.0016
c1cn(-c2ccc(CN3CCC(c4nnn5cnc6[nH]ccc6c45)CC3)cc2)cn1 [compound 221, 1-{1-[4-(1H-imidazol-1-yl)benzyl]piperidin-4-yl}-7H-pyrrolo[3,2-e][1,2,3]triazolo[1,5-c]pyrimidine] | – | – | – | – | > 1 | > 1 | 0.09 | 0.018
N#C/C(=C\N1CCC(c2nnn3cnc4[nH]ccc4c23)CC1)c1ccccc1 [compound 230, (Z)-3-[4-(7H-pyrrolo[3,2-e][1,2,3]triazolo[1,5-c]pyrimidin-1-yl)piperidin-1-yl]-2-phenylacrylonitrile] | – | – | – | – | > 1 | > 1 | 0.13 | 0.035
c1ccc(CCNC[C@H]2CC[C@H](c3nnn4cnc5[nH]ccc5c34)CC2)cc1 [compound 174, N-{[trans-4-(7H-pyrrolo[3,2-e][1,2,3]triazolo[1,5-c]pyrimidin-1-yl)cyclohexyl]methyl}-2-phenylethanamine] | 0.61 | 0.099 | 0.072 | 0.0057 | – | – | – | –
Fc1ccc([C@@H]2C[C@H]2CN[C@H]2CC[C@H](c3nnn4cnc5[nH]ccc5c34)CC2)cc1 (relative stereo) [389b, trans-N-{[trans-2-(4-fluorophenyl)cyclopropyl]methyl}-4-(7H-pyrrolo[3,2-e][1,2,3]triazolo[1,5-c]pyrimidin-1-yl)cyclohexanamine] | – | – | – | – | > 1 | 0.67 | 0.14 | 0.0079
O=C([C@H]1CC[C@H](c2nnn3cnc4[nH]ccc4c23)CC1)N1CC(O)C1 [compound 361, [trans-4-(7H-pyrrolo[3,2-e][1,2,3]triazolo[1,5-c]pyrimidin-1-yl)cyclohexyl](3-hydroxyazetidin-1-yl)methanone] | – | – | – | – | > 1 | > 1 | 0.25 | 0.089
O[C@H]1Cc2ccccc2[C@H]1NC1CCC(c2nnn3cnc4[nH]ccc4c23)CC1 (mixture of isomers) [compound 378, (1R,2S)-1-{[4-(7H-pyrrolo[3,2-e][1,2,3]triazolo[1,5-c]pyrimidin-1-yl)cyclohexyl]amino}-2,3-dihydro-1H-inden-2-ol] | – | – | – | – | 0.41 | 0.2 | 0.071 | 0.004
COc1ccc(CNC[C@H]2CC[C@H](c3nnn4cnc5[nH]ccc5c34)CC2)cc1 [compound 270, 1-[trans-4-(7H-pyrrolo[3,2-e][1,2,3]triazolo[1,5-c]pyrimidin-1-yl)cyclohexyl]-N-(4-methoxybenzyl)methanamine] | – | – | – | – | 0.75 | 0.0048 | 0.1 | 0.012
N#CCNC(=O)C[C@H]1CC[C@@H](c2nnn3cnc4[nH]ccc4c23)CC1 [443a, 2-[cis-4-(7H-Pyrrolo[3,2-e][1,2,3]triazolo[1,5-c]pyrimidin-1-yl)cyclohexyl]-N-(cyanomethyl)acetamide] | – | – | – | – | 0.73 | 0.54 | 0.06 | 0.026
NC(=O)C1CCN(C[C@H]2CC[C@H](c3nnn4cnc5[nH]ccc5c34)CC2)CC1 [compound 261, 1-{[trans-4-(7H-pyrrolo[3,2-e][1,2,3]triazolo[1,5-c]pyrimidin-1-yl)cyclohexyl]methyl}piperidine-4-carboxamide] | – | – | – | – | > 1 | 0.64 | 0.091 | 0.023
c1cc2c(ncn3nnc([C@H]4CC[C@H](CN5CCC(N6CCOCC6)CC5)CC4)c23)[nH]1 [compound 334, 4-(1-{[trans-4-(7H-pyrrolo[3,2-e][1,2,3]triazolo[1,5-c]pyrimidin-1-yl)cyclohexyl]methyl}piperidin-4-yl)morpholine] | – | – | – | – | > 1 | > 1 | > 1 | 0.064
N#CC1CCN(C[C@H]2CC[C@H](c3nnn4cnc5[nH]ccc5c34)CC2)CC1 [compound 89] | > 1 | 0.61 | 0.2 | 0.025 | – | – | – | –
c1cc(CN2CCC(c3nnn4cnc5[nH]ccc5c34)CC2)ccn1 [compound 239, 1-[1-(pyridin-4-ylmethyl)piperidin-4-yl]-7H-pyrrolo[3,2-e][1,2,3]triazolo[1,5-c]pyrimidine] | – | – | – | – | 0.61 | 0.65 | 0.035 | 0.0081
O=C(N[C@H]1CCN(C[C@H]2CC[C@H](c3nnn4cnc5[nH]ccc5c34)CC2)C1)C(F)(F)F [compound 321, N-((S)-1-{[trans-4-(7H-pyrrolo[3,2-e][1,2,3]triazolo[1,5-c]pyrimidin-1-yl)cyclohexyl]methyl}pyrrolidin-3-yl)-2,2,2-trifluoroacetamide] | – | – | – | – | > 1 | > 1 | 0.21 | 0.024
CC(NC[C@H]1CC[C@H](c2nnn3cnc4[nH]ccc4c23)CC1)c1ccc(F)c(F)c1 (mixture of isomers) [compound 109] | 0.16 | 0.072 | 0.011 | 0.0016 | – | – | – | –
CC(C#N)[C@H]1CC[C@H](c2nnn3cnc4[nH]ccc4c23)CC1 (stereo partly drawn) [439b, 2-[trans-4-(7H-Pyrrolo[3,2-e][1,2,3]triazolo[1,5-c]pyrimidin-1-yl)cyclohexyl]propanenitrile] | – | – | – | – | 0.33 | 0.025 | 0.0067 | 0.0031
N#CCCN(C[C@H]1CC[C@H](c2nnn3cnc4[nH]ccc4c23)CC1)c1ccccc1 [compound 300, 3-({[trans-4-(7H-pyrrolo[3,2-e][1,2,3]triazolo[1,5-c]pyrimidin-1-yl)cyclohexyl]methyl}(phenyl)amino)propanenitrile] | – | – | – | – | 0.75 | > 1 | 0.059 | 0.025
COc1ccc(C(O)(CN[C@H]2CC[C@H](c3nnn4cnc5[nH]ccc5c34)CC2)C(F)(F)F)cc1 (stereo partly drawn) [388b, 3-{[trans-4-(7H-pyrrolo[3,2-e][1,2,3]triazolo[1,5-c]pyrimidin-1-yl)cyclohexyl]amino}-1,1,1-trifluoro-2-(4-methoxyphenyl)propan-2-ol] | – | – | – | – | 0.26 | 0.21 | 0.025 | 0.0012
c1cc2c(ncn3nnc([C@H]4CC[C@H](CN5CCC5)CC4)c23)[nH]1 [compound 286, 1-[trans-4-(azetidin-1-ylmethyl)cyclohexyl]-7H-pyrrolo[3,2-e][1,2,3]triazolo[1,5-c]pyrimidine] | – | – | – | – | 0.57 | 0.23 | 0.035 | 0.0059
O=C(CN[C@H]1CC[C@@H](c2nnn3cnc4[nH]ccc4c23)CC1)NCC(F)(F)F [384a, 2-{[cis-4-(7H-pyrrolo[3,2-e][1,2,3]triazolo[1,5-c]pyrimidin-1-yl)cyclohexyl]amino}-N-(2,2,2-trifluoroethyl)acetamide] | – | – | – | – | > 1 | > 1 | 0.56 | 0.087
Fc1cc(C(F)(F)F)cc(F)c1CN1CCC(c2nnn3cnc4[nH]ccc4c23)CC1 [compound 224, 1-{1-[2,6-difluoro-4-(trifluoromethyl)benzyl]piperidin-4-yl}-7H-pyrrolo[3,2-e][1,2,3]triazolo[1,5-c]pyrimidine] | – | – | – | – | 0.43 | 0.95 | 0.012 | 0.002
O=C1COc2ccc(NC[C@H]3CC[C@H](c4nnn5cnc6[nH]ccc6c45)CC3)cc2N1 [compound 274, 6-({[trans-4-(7H-pyrrolo[3,2-e][1,2,3]triazolo[1,5-c]pyrimidin-1-yl)cyclohexyl]methyl}amino)-2H-benzo[b][1,4]oxazin-3(4H)-one] | – | – | – | – | > 1 | 0.2 | 0.029 | 0.0035
N#Cc1ccc(CN2CCC(c3nnn4cnc5[nH]ccc5c34)CC2)cc1C(F)(F)F [compound 244, 4-{[4-(7H-pyrrolo[3,2-e][1,2,3]triazolo[1,5-c]pyrimidin-1-yl)piperidin-1-yl]methyl}-2-(trifluoromethyl)benzonitrile] | – | – | – | – | 0.44 | 0.79 | 0.038 | 0.0054
